Assay results from patent US20080102130A1, “DRY GRANULATED PHARMACEUTICAL COMPOSITIONS AND METHODS FOR PRODUCING SAME” (Janssen Pharmaceutica NV, priority 2006, published 2008).

Assay: Particle size distribution of the drug substance
Type: physicochemical
Text: Tapentadol is predominantly rectangular or rod-shaped crystalline powder. […] The D10 can be as low as 5 microns while the D99 can be as high as 500 microns. Although, the particle size distribution of the drug substance is controlled during crystallization, milling or micronizing the API to less than a micron size would not affect processability, as described herein, or the attribute of the drug product. Other APIs with similar properties such as Tramadol are expected to have a similar behavior.

In the case of `CC[C@@H](c1cccc(O)c1)[C@@H](C)CN(C)C` [Tapentadol], the “Particle size distribution D10” value is reported as no less than 5 microns and the “Particle size distribution D99” value is reported as no more than 500 microns.
